From patent US5807845A, “Therapeutic drug for acne vulgaris” (Senju Pharmaceutical Co., Ltd., priority 1996, dated 1998)
Where two headings read alike, the source gives them in different places. One block for each compound: values may come before it.

Legend:
[1] = system: auricular sebaceous glands; assay: Inhibitory effect on the increase in hamster auricular sebaceous gland area (testosterone propionate-induced); format: in vivo, Syrian hamster; details: 0.2%, 20 μl to right auricle twice daily for 2 weeks
Description: It is known that, in acne vulgaris, the sebaceous gland function of the skin is enhanced by elevation of the androgen level. Therefore, the auricular sebaceous glands were expanded by subcutaneous administration of an androgen to hamsters and the inhibitory effect of the present compound on this enlargement was tested.
Female Syrian hamsters purchased from SLC Japan were used at the age of 7 weeks.
(2) 0.2% L-ascorbyl DL-α-tocopheryl phosphate potassium (abbreviation: EPC-K)
In 1 ml of sesame oil was dissolved 80 μg of testosterone propionate and the solution was administered subcutaneously to hamsters every other day for 2 weeks to enlarge auricular sebaceous glands. The test material was applied in a volume of 20 μl to the right auricle twice daily for 2 weeks from the beginning of the test. The normal group was subjected to neither treatment. After 2 weeks, the hamsters were sacrificed. The right auricle was bored with a 9 mm-diameter punch and the sebaceous gland area was measured by the whole mount technique. The data were statistically analyzed by Dunnett's test. The level of significance was p<0.05.

[2] = system: Propionibacterium acnes (P. acnes); assay: Minimal growth inhibitory concentration (MIC) against Propionibacterium acnes; format: cell-based, Propionibacterium acnes (clinically isolated strain); details: for MIC: Cutibacterium acnes; on Growth of P. acnes: key: +: growth; -: growth inhibition
Description: The minimal growth inhibitory concentration (MIC) of the present compound against P. acnes, which is a factor in the onset of acne vulgaris and a member of the normal flora of the skin, was determined.
(1) EPC-K (dissolved in distilled water)
Doubling dilutions from 10 mg/ml to 1.953125×10^-2 mg/ml in final concentration
(2) dl-α-tocopherol and L-ascorbic acid (dissolved in a mixed solution which consists of HC-60 (trademark, manufactured by NOF corporation) and propyleneglycol)
Dubling dilutions from 5 mg/ml to 7.8125×10^-2 mg/ml in final concentration
(3) As control, the mixed solution mentioned above was tested.
This test was performed by the method published by Committee for the Study of Methods for MIC Determination in Anaerobic Bacteria.
A frozen clinically isolated strain of P. acnes was subcultured on GAM agar medium for 3 generations and suspended in saline at about 10^8 cells/ml. This cell suspension and a 100-fold dilution thereof were used as inocula.
To molten GAM agar medium was added 1/9 volume of the test solution of a varying concentration and, after thorough mixing, sensitivity assay plates ranging from 10 mg/ml to 1.953125×10^-2 mg/ml in final concentration were prepared (plate pH 6.64-7.10). Using a loopful of the inoculum, each plate was streaked and incubated anaerobically at 37° C. for at least 48 hours. The incubated plate was then observed grossly and the lowest concentration causing a definite inhibition of growth was regarded as the MIC.
The inoculum was serially diluted 10-fold down to […] and GAM medium was inoculated with each dilution. After culture, the number of colonies were similarly countered for confirmation of the cell count.

Toxicity, LD50 in rat = details: in vivo, intravenous
[3] = 0.15625 mg/ml, 10^6 CFU/ml (Table 3)
[4] = 0.15625 mg/ml, 10^8 CFU/ml (Table 3)
[5] = 0.3125 mg/ml, 10^6 CFU/ml (Table 3)
[6] = 0.3125 mg/ml, 10^8 CFU/ml (Table 3)
[7] = 0.625 mg/ml, 10^6 CFU/ml (Table 3)
[8] = 0.625 mg/ml, 10^8 CFU/ml (Table 3)
[9] = 1.25 mg/ml, 10^6 CFU/ml (Table 3)
[10] = 1.25 mg/ml, 10^8 CFU/ml (Table 3)
[11] = 2.5 mg/ml, 10^6 CFU/ml (Table 3)
[12] = 2.5 mg/ml, 10^8 CFU/ml (Table 3)
[13] = 5.0 mg/ml, 10^6 CFU/ml (Table 3)
[14] = 5.0 mg/ml, 10^8 CFU/ml (Table 3)
[15] = 7.8125 × 10^-2 mg/ml, 10^6 CFU/ml (Table 3)
[16] = 7.8125 × 10^-2 mg/ml, 10^8 CFU/ml (Table 3)
[17] = vitamins in HC-60/propyleneglycol mixed solution, cell counts 10^8 and 10^6 CFU/ml (Table 3), read-out: MIC

Compound: Cc1c(C)c2c(c(C)c1OP(=O)(O)OC1=C(O)[C@@H]([C@@H](O)CO)OC1=O)CCC(C)(CCCC(C)CCCC(C)CCCC(C)C)O2 (mixture of isomers) [EPC-K, L-ascorbyl DL-α-tocopheryl phosphate potassium]
Area (auricular sebaceous gland area) ([1]; mean ± standard deviation (n = 7-8), p < 0.01 vs. methanol control): 3327 ± 225 μm^2 | % Inhibition of the increase in auricular sebaceous gland area ([1]; vs. methanol control): 72.5% | Growth of P. acnes ([2]; 0.15625 mg/ml, 10^6 CFU/ml (Table 2)): + | Growth of P. acnes ([2]; 0.15625 mg/ml, 10^8 CFU/ml (Table 2)): + | Growth of P. acnes ([2]; 0.3125 mg/ml, 10^6 CFU/ml (Table 2)): - | Growth of P. acnes ([2]; 0.3125 mg/ml, 10^8 CFU/ml (Table 2)): + | Growth of P. acnes ([2]; 0.625 mg/ml, 10^6 CFU/ml (Table 2)): - | Growth of P. acnes ([2]; 0.625 mg/ml, 10^8 CFU/ml (Table 2)): - | Growth of P. acnes ([2]; 1.25 mg/ml, 10^6 CFU/ml (Table 2)): - | Growth of P. acnes ([2]; 1.25 mg/ml, 10^8 CFU/ml (Table 2)): - | Growth of P. acnes ([2]; 2.5 mg/ml, 10^6 CFU/ml (Table 2)): - | Growth of P. acnes ([2]; 2.5 mg/ml, 10^8 CFU/ml (Table 2)): - | Growth of P. acnes ([2]; 5.0 mg/ml, 10^6 CFU/ml (Table 2)): - | Growth of P. acnes ([2]; 5.0 mg/ml, 10^8 CFU/ml (Table 2)): - | Growth of P. acnes ([2]; 10.0 mg/ml, 10^6 CFU/ml (Table 2)): - | Growth of P. acnes ([2]; 10.0 mg/ml, 10^8 CFU/ml (Table 2)): - | Growth of P. acnes ([2]; 1.953125 × 10^-2 mg/ml, 10^6 CFU/ml (Table 2)): + | Growth of P. acnes ([2]; 1.953125 × 10^-2 mg/ml, 10^8 CFU/ml (Table 2)): + | Growth of P. acnes ([2]; 3.90625 × 10^-2 mg/ml, 10^6 CFU/ml (Table 2)): + | Growth of P. acnes ([2]; 3.90625 × 10^-2 mg/ml, 10^8 CFU/ml (Table 2)): + | Growth of P. acnes ([2]; 7.8125 × 10^-2 mg/ml, 10^6 CFU/ml (Table 2)): + | Growth of P. acnes ([2]; 7.8125 × 10^-2 mg/ml, 10^8 CFU/ml (Table 2)): + | MIC ([2]; cell count 10^6 /ml, EPC-K dissolved in distilled water): 312 µg/mL | MIC ([2]; cell count 10^8 /ml, EPC-K dissolved in distilled water): 625 µg/mL | LD50 (Toxicity, LD50 in rat): ≥ 100 mg/kg

MIC [2, 17]: ≥ 5000 µg/mL
Compound: Cc1c(C)c2c(c(C)c1O)CCC(C)(CCCC(C)CCCC(C)CCCC(C)C)O2 (racemic) [dl-α-Tocopherol, dl-α-tocopherol]
Growth of P. acnes [2, 3]: + | Growth of P. acnes [2, 4]: + | Growth of P. acnes [2, 5]: + | Growth of P. acnes [2, 6]: + | Growth of P. acnes [2, 7]: + | Growth of P. acnes [2, 8]: + | Growth of P. acnes [2, 9]: + | Growth of P. acnes [2, 10]: + | Growth of P. acnes [2, 11]: + | Growth of P. acnes [2, 12]: + | Growth of P. acnes [2, 13]: + | Growth of P. acnes [2, 14]: + | Growth of P. acnes [2, 15]: + | Growth of P. acnes [2, 16]: +

MIC [2, 17]: ≥ 5000 µg/mL
Compound: O=C1O[C@H]([C@@H](O)CO)C(O)=C1O [L-Ascorbic acid, L-ascorbic acid]
Growth of P. acnes [2, 3]: + | Growth of P. acnes [2, 4]: + | Growth of P. acnes [2, 5]: + | Growth of P. acnes [2, 6]: + | Growth of P. acnes [2, 7]: + | Growth of P. acnes [2, 8]: + | Growth of P. acnes [2, 9]: + | Growth of P. acnes [2, 10]: + | Growth of P. acnes [2, 11]: + | Growth of P. acnes [2, 12]: + | Growth of P. acnes [2, 13]: + | Growth of P. acnes [2, 14]: + | Growth of P. acnes [2, 15]: + | Growth of P. acnes [2, 16]: +
